Source: patent US20120121540A1 (priority 2007, published 2012)

Assay: HCV replicon assay (luciferase reporter, ET cell line)
Format: cell-based
Conditions: Hepatitis C virus, HCV replicon luciferase activity in ET cells
Summary of the method: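 EC50 and, via WST-1 cytotoxicity, TC50 were fitted with a Hill-coefficient equation to % inhibition across 10 two-fold dilutions. Compounds at 0.1 nM-[…] with 0.5% DMSO were applied 24 h post-seeding to replicon-bearing ET cells (luc-ubi-neo/NS3-5B, adaptive mutations). Firefly luciferase signal was measured after 48-72 h.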

Compared with `CN(C)CCNC(=O)[C@@H]1CN(C(=O)c2nc3c(C(F)(F)F)cc(-c4ccoc4)cn3c2Cl)C[C@H]1c1ccccc1` (stereo in doubt) [Compound 224, 1-(3-Chloro-6-furan-3-yl-8-trifluoromethyl-imidazo[1,2-a]pyridine-2-carbonyl)-4-phenyl-pyrrolidine-3-carboxylic Acid (2-dimethylamino-ethyl)-amide], `O=C(c1nc2c(C(F)(F)F)cc(-c3ccoc3)cn2c1Cl)N1CCC(c2cccc(Cl)c2)C1` (stereo not shown) [Compound 460, (3-Chloro-6-furan-3-yl-8-trifluoromethyl-imidazo[1,2-a]pyridin-2-yl)-[3-(3-chloro-phenyl)-pyrrolidin-1-yl]-methanone] is lower in inhibition at 10 µM: 98.7% for the first, 88% for the second.

Going from `Cc1n[nH]cc1-c1cc(C(F)(F)F)c2nc(C(=O)N3CCC(c4cccc(F)c4)C3)c(Cl)n2c1` (stereo not shown) [Compound 625, [3-Chloro-6-(3-methyl-1H-pyrazol-4-yl)-8-trifluoromethyl-imidazo[1,2-a]pyridin-2-yl]-[3-(3-fluoro-phenyl)-pyrrolidin-1-yl]-methanone] to `O=C(c1cn2cc(-c3cn[nH]c3)cc(C(F)(F)F)c2n1)N1CCC(c2cccc(F)c2)C1` (stereo not shown) [Compound 378, [3-(3-Fluoro-phenyl)-pyrrolidin-1-yl]-[6-(1H-pyrazol-4-yl)-8-trifluoromethyl-imidazo[1,2-a]pyridin-2-yl]-methanone], the inhibition at 10 µM rises from 59.8% to 86.4%.

Going from `O=C(c1cn2cc(-c3ccccc3)cc(C(F)(F)F)c2n1)N1CCC(c2cccc(F)c2)C1` (stereo not shown) [Compound 639, [3-(3-Fluoro-phenyl)-pyrrolidin-1-yl]-(6-phenyl-8-trifluoromethyl-imidazo[1,2-a]pyridin-2-yl)-methanone] to `O=C(c1nc2c(C(F)(F)F)cc(-c3ccco3)cn2c1Cl)N1CCCC(c2ccccc2)C1` (stereo not shown) [Compound 216, (3-Chloro-6-furan-2-yl-8-trifluoromethyl-imidazo[1,2-a]pyridin-2-yl)-(3-phenyl-piperidin-1-yl)-methanone], the inhibition at 10 µM falls from 71.9% to 60.3%.

Going from `Cc1cc(-c2ccccc2)cc2cc(C(=O)NCc3cccs3)nn12` [Compound 114, 7-Methyl-5-phenyl-pyrazolo[1,5-a]pyridine-2-carboxylic acid (thiophen-2-ylmethyl)-amide] to `O=C(NCc1cccs1)c1cc2cc(-c3ccccc3)cc(I)n2n1` [Compound 102, 7-Iodo-5-phenyl-pyrazolo[1,5-a]pyridine-2-carboxylic Acid (thiophen-2-ylmethyl)-amide], the inhibition at 10 µM rises from 37.9% to 81%.

Compared with `C=C(C)c1c(C(=O)NCc2cccs2)nc2c(C(F)(F)F)cc(-c3cccc(F)c3)cn12` [Compound 302, 6-(3-Fluoro-phenyl)-3-isopropenyl-8-trifluoromethyl-imidazo[1,2-a]pyridine-2-carboxylic Acid (thiophen-2-ylmethyl)-amide], `O=C(NCc1cccs1)c1nc2c(C(F)(F)F)cc(-c3ccncc3)cn2c1Cl` [Compound 207, 3-Chloro-6-pyridin-4-yl-8-trifluoromethy-imidazo[1,2-a]pyridine-2-carboxylic acid (thiophen-2-ylmethyl)-amide] is higher in inhibition at 10 µM: 69.5% for the first, 85.7% for the second.

First: O=C(c1nc2c(C(F)(F)F)cc(-c3ccoc3)cn2c1Cl)N1CC=C(c2cccnc2F)CC1 [Compound 581, (3-Chloro-6-furan-3-yl-8-trifluoromethyl-imidazo[1,2-a]pyridin-2-yl)-(2-fluoro-3′,6′-dihydro-2′H-[3,4′]bipyridinyl-1′-yl)-methanone]
Second: O=C(c1nc2c(C(F)(F)F)cc(-c3ccoc3)cn2c1Cl)N1CC=C(c2ccccc2F)CC1 [Compound 555, (3-Chloro-6-furan-3-yl-8-trifluoromethyl-imidazo[1,2-a]pyridin-2-yl)-[4-(2-fluoro-phenyl)-3,6-dihydro-2H-pyridin-1-yl)-methanone]
The inhibition at 10 µM of the first is higher: 98.2% for the first, 95.5% for the second.

Going from `O=C(c1nc2c(C(F)(F)F)cc(-c3ccoc3)cn2c1Cl)N1CCC(n2cnc3ccccc32)CC1` [Compound 605, (4-Benzoimidazol-1-yl-piperidin-1-yl)-(3-chloro-6-furan-3-yl-8-trifluoromethyl-imidazo[1,2-a]pyridin-2-yl)-methanone] to `O=C(c1nc2c(C(F)(F)F)cc(-c3ccoc3)cn2c1Cl)N1CCN(c2noc3ccccc23)CC1` [Compound 551, (4-Benzo[d]isoxazol-3-yl-piperazin-1-yl)-(3-Chloro-6-furan-3-yl-8-trifluoromethyl-imidazo[1,2-a]pyridine-2-yl)-methanone], the inhibition at 10 µM rises from 3.1% to 38.5%.

Compared with `CC(C)S(=O)(=O)NC1CN(C(=O)c2nc3c(C(F)(F)F)cc(-c4ccoc4)cn3c2Cl)C1` [Compound 497, Propane-2-sulfonic acid [1-(3-chloro-6-furan-3-yl-8-trifluoromethyl-imidazo[1,2-a]pyridine-2-carbonyl)-azetidin-3-yl]-amide], `N#CC1CCN(C(=O)c2nc3c(C(F)(F)F)cc(-c4ccoc4)cn3c2Cl)C1` (stereo not shown) [Compound 416, 1-(3-Chloro-6-furan-3-yl-8-trifluoromethyl-imidazo[1,2-a]pyridine-2-carbonyl)-pyrrolidine-3-carbonitrile] is lower in inhibition at 10 µM: 97.8% for the first, 58% for the second.

First: O=C(c1nc2c(C(F)(F)F)cc(-c3ccoc3)cn2c1Cl)N1CCC(N2CCOCC2)C1 (stereo not shown) [Compound 381, (3-Chloro-6-furan-3-yl-8-trifluoromethyl-imidazo[1,2-a]pyridin-2-yl)-(3-morpholin-4-yl-pyrrolidin-1-yl)-methanone]
Second: O=C(c1nc2c(C(F)(F)F)cc(-c3ccoc3)cn2c1Cl)N1CCN(c2nccs2)CC1 [Compound 536, (3-Chloro-6-furan-3-yl-8-trifluoromethyl-imidazo[1,2-a]pyridine-2-yl)-(4-thiazol-2-yl-piperazin-1-yl)-methanone]
The inhibition at 10 µM of the first is lower: 37.9% for the first, 95.8% for the second.

First: O=C(NCCc1ccccn1)c1nc2c(C(F)(F)F)cc(-c3ccoc3)cn2c1Cl [Compound 554, 3-Chloro-6-furan-3-yl-8-trifluoromethyl-imidazo[1,2-a]pyridine-2-carboxylic acid (2-pyridin-2-yl-ethyl)-amide]
Second: C[C@H](NC(=O)c1nc2c(C(F)(F)F)cc(-c3ccoc3)cn2c1Cl)c1ccccc1 [Compound 412, 3-Chloro-6-furan-3-yl-8-trifluoromethyl-imidazo[1,2-a]pyridine-2-carboxylic Acid (1-phenyl-ethyl)-amide]
The inhibition at 10 µM of the first is higher: 97.4% for the first, 85% for the second.

First: CN(C)CCNC(=O)C(NC(=O)c1nc2c(C(F)(F)F)cc(-c3ccco3)cn2c1Cl)c1cccs1 (stereo not shown) [Compound 172, 3-Chloro-6-furan-2-yl-8-trifluoromethyl-imidazo[1,2-a]pyridine-2-carboxylic acid [(2-dimethylamino-ethylcarbamoyl)-thiophen-2-yl-methyl]-amide]
Second: O=C(NCc1cccs1)c1nc2c(C(F)(F)F)cc(-c3ccc[nH]3)cn2c1Cl [Compound 293, 3-Chloro-6-(1H-pyrrol-2-yl)-8-trifluoromethyl-imidazo[1,2-a]pyridine-2-carboxylic Acid(thiophen-2-ylmethyl)-amide]
The inhibition at 10 µM of the first is higher: 100% for the first, 87.2% for the second.

Going from `N#CC1(c2ccccc2)CCN(C(=O)c2nc3c(C(F)(F)F)cc(-c4ccoc4)cn3c2Cl)CC1` [Compound 601, 1-(3-Chloro-6-furan-3-yl-8-trifluoromethyl-imidazo[1,2-a]pyridine-2-carbonyl)-4-phenyl-piperidine-4-carbonitrile] to `N#Cc1c(F)ccc(F)c1C1=CCN(C(=O)c2nc3c(C(F)(F)F)cc(-c4ccoc4)cn3c2Cl)CC1` [Compound 635, 2-(1-{[3-chloro-6-(furan-3-yl)-8-(trifluoromethyl)imidazo[1,2-a]pyridin-2-yl]carbonyl}-1,2,3,6-tetrahydropyridin-4-yl)-3,6-difluorobenzonitrile], the inhibition at 10 µM falls from 98.3% to 95.9%.

Compared with `O=C(NCc1cccs1)c1nc2c(C(F)(F)F)cc(-c3ncon3)cn2c1Cl` [Compound 311, 3-Chloro-6-[1,2,4]oxadiazol-3-yl-8-trifluoromethyl-imidazo[1,2-a]pyridine-2-carboxylic Acid (thiophen-2-ylmethyl)-amide], `O=C(NCc1cccs1)c1nc2c(C(F)(F)F)cc(/C=C/c3ccccc3)cn2c1Cl` [Compound 287, 3-Chloro-6-styryl-8-trifluoromethyl-imidazo[1,2-a]pyridine-2-carboxylic Acid (thiophen-2-ylmethyl)-amide] is lower in inhibition at 10 µM: 83.2% for the first, 52.3% for the second.

Compared with `O=C(NCC1CCCO1)c1cc2cc(-c3ccccc3)cc(I)n2n1` (stereo not shown) [Compound 131, 7-Iodo-5-phenyl-pyrazolo[1,5-a]pyridine-2-carboxylic Acid (tetrahydro-furan-2-ylmethyl)-amide], `O=C(Cc1c(C(=O)N2CCC(c3ccc(F)cc3)C2)nc2c(C(F)(F)F)cc(-c3ccoc3)cn12)NCc1ccccc1` (stereo not shown) [Compound 240, N-Benzyl-2-{2-[3-(4-fluoro-phenyl)-pyrrolidine-1-carbonyl]-6-furan-3-yl-8-trifluoromethyl-imidazo[1,2-a]pyridin-3-yl}-acetamide] is lower in inhibition at 10 µM: 49.2% for the first, 33.4% for the second.

First: O=C(NCc1cccs1)c1cc2cc(-c3ccoc3)cc(Cl)c2[nH]1 [Compound 348, 7-Chloro-5-furan-3-yl-1H-indole-2-carboxylic Acid (thiophen-2-ylmethyl)-amide]
Second: O=C(NC(c1ccccc1)c1ccccn1)c1nc2c(C(F)(F)F)cc(-c3ccoc3)cn2c1Cl (stereo not shown) [Compound 410, 3-Chloro-6-furan-3-yl-8-trifluoromethyl-imidazo[1,2-a]pyridine-2-carboxylic Acid (phenyl-pyridin-2-yl-methyl)-amide]
The inhibition at 10 µM of the first is lower: 0.1% for the first, 99.1% for the second.

Molecule `O=C(c1nc2c(C(F)(F)F)cc(-c3ccoc3)cn2c1Cl)N1C=C(c2cscn2)CCC1` [Compound 588, (3-Chloro-6-furan-3-yl-8-trifluoromethyl-imidazo[1,2-a]pyridin-2-yl)-(5-thiazol-4-yl-3,4-dihydro-2H-pyridin-1-yl)-methanone] has an inhibition at 10 µM of 84.5%.
